In publication PMC10053710, “Influence of Lipidation Pattern of the KR12 Fragment of Peptide LL-37 on Its Antibacterial and Hemolytic Activities” (International Journal of Molecular Sciences, 2023):
Values after ≈ are worked out from the molar mass of the structure shown. Read-outs that look alike come from different tables or passages of the source. Where a SMILES comes first, the peptide text is derived from it. The star is where a group is joined. Hydrocinnamoyl = O=C(CCc1ccccc1)*; X4 = O=C(/C=C/c1ccccc1)*; PhAc = O=C(Cc1ccccc1)*; Bz = O=C(c1ccccc1)*

How the values were obtained:
[1] = tested on: human red blood cells (hRBCs); experiment: Hemolysis assay; conditions: 4% (v/v) erythrocytes in PBS, peptides 1–512 µg/mL, 1 h at 37 °C, hemoglobin at 540 nm
Protocol: To facilitate a comparison of hemolytic activity between the analogs, MHC5 values were determined. MHC5 is the minimum hemolytic concentration of the compounds that caused the 5% hemolysis of hRBCs.
Briefly, the fresh hRBCs with EDTA as anticoagulant were rinsed three times with PBS through centrifugation at 800× g for 10 min and resuspended in PBS. The serial dilution of peptides (1–512 µg/mL) was prepared in PBS on 96-well plates. Then, the stock RBCs solution was added to the plates to reach a final volume of 100 µL with a 4% concentration of erythrocytes (v/v). The control wells for 0 (RBCs in PBS) and 100% (RBCs in 1% Triton-X 100) hemolysis were also prepared. Then, the plates were incubated for 1 h at 37 °C and centrifuged at 800× g for 10 min at 4 °C (Sorvall ST 16R Centrifuge, Thermo Scientific, Waltham, MA, USA). After centrifugation, the supernatant was carefully transferred to new microtiter plates and the release of hemoglobin was measured at 540 nm (Multiskan™ GO Microplate Spectrophotometer, Thermo Scientific, Waltham, MA, USA). The percentage of hemolysis was calculated based on wells with 100% hemolysis.

[2] = tested on: S. aureus ATCC 25923; type: cell-based, Staphylococcus aureus
Protocol: (§1) Tests of the antibacterial activity were carried out as we just described. Briefly, for assays, the following strains of ESKAPE bacteria were chosen: Acinetobacter baumannii ATCC BAA-1605, Enterococcus faecium ATCC 700221, Klebsiella aerogenes ATCC 13048 (formerly Enterobacter aerogenes), Klebsiella pneumoniae ATCC 700603, and Pseudomonas aeruginosa ATCC 9027. Moreover, the reference strains of Staphylococcus aureus were used: S. aureus ATCC 25923, S. aureus ATCC 6538, S. aureus ATCC 33591 (MRSA), S. aureus ATCC 9144, and S. aureus ATCC 12598. Before experiments, all the strains were stored at −80 °C in Roti®-Store cryo vials (Carl Roth GmbH, Karlsruhe, Germany). To evaluate the activity of the compounds, bacteria were transferred into fresh Mueller–Hinton medium (Becton Dickinson, Warszawa, Poland) and incubated for 24 h at 37 °C. In the next step, bacterial inoculums were seeded on Mueller–Hinton agar plates (BioMaxima SA, Lublin, Poland) and incubated again for 24 h. The MIC values were determined using the broth microdilution method according to the Clinical and Laboratory Standards Institute Protocol. The initial inoculums of bacteria (0.5 × 10^5 colony forming units (CFU)/mL) prepared in Mueller–Hinton broth were exposed to the ranging concentrations of peptides (1–512 µg/mL). The experiments were conducted on 96-well microtiter plates, with a final volume of 100 µL. The inoculum densities were checked spectrophotometrically (Multiskan™ GO Microplate Spectrophotometer, Thermo Scientific, Waltham, MA, USA) at 600 nm. The results were read after incubation for 18 h at 37 °C. The MIC values were the lowest concentration at which a visible growth of microorganisms was inhibited. All experiments were conducted in triplicate. Moreover, positive (growth) and negative (sterility) controls were included.

[3] = tested on: S. aureus ATCC 6538; type: cell-based, Staphylococcus aureus
Protocol: as §1

[4] = tested on: S. aureus ATCC 12598; type: cell-based, Staphylococcus aureus
Protocol: as §1

[5] = tested on: S. aureus ATCC 9144; type: cell-based, Staphylococcus aureus
Protocol: as §1

[6] = tested on: S. aureus ATCC 33591 (MRSA); type: cell-based, Staphylococcus aureus
Protocol: as §1

[7] = tested on: Enterococcus faecium ATCC 700221; type: cell-based
Protocol: as §1

[8] = tested on: Pseudomonas aeruginosa ATCC 9027; type: cell-based
Protocol: as §1

[9] = tested on: Klebsiella aerogenes ATCC 13048; type: cell-based
Protocol: as §1

[10] = tested on: Klebsiella pneumoniae ATCC 700603; type: cell-based
Protocol: as §1

[11] = 100% = 1% Triton-X 100, ≥ means less than 5% hemolysis up to 512 µg/mL
[12] = Mueller–Hinton broth, 0.5 × 10^5 CFU/mL, peptides 1–512 µg/mL, 18 h at 37 °C, triplicate
[13] = MRSA, Mueller–Hinton broth, 0.5 × 10^5 CFU/mL, peptides 1–512 µg/mL, 18 h at 37 °C, triplicate

| SMILES | MIC A. baumannii (18 h) [µg/mL] | MIC S. aureus 25923 ([2]; ATCC 25923, 18 h) [µg/mL] | MIC S. aureus 6538 ([3]; ATCC 6538, 18 h) [µg/mL] | MIC S. aureus 12598 ([4]; ATCC 12598, 18 h) [µg/mL] | MIC S. aureus 9144 ([5]; ATCC 9144, 18 h) [µg/mL] | MIC S. aureus 33591 ([6]; ATCC 33591, 18 h) [µg/mL] | MIC E. faecium ([7]; ATCC 700221, 18 h) [µg/mL] | MIC P. aeruginosa ([8]; ATCC 9027, 18 h) [µg/mL] | MIC K. aerogenes ([9]; ATCC 13048, 18 h) [µg/mL] | MIC K. pneumoniae ([10]; ATCC 700603, 18 h) [µg/mL] | MHC5 (minimum hemolytic concentration causing 5% hemolysis of hRBCs) [1, 11] [µg/mL] | MIC A. baumannii [12] [µg/mL] | MIC S. aureus 25923 [2, 12] [µg/mL] | MIC S. aureus 6538 [3, 12] [µg/mL] | MIC S. aureus 12598 [4, 12] [µg/mL] | MIC S. aureus 9144 [5, 12] [µg/mL] | MIC S. aureus 33591 [6, 13] [µg/mL] | MIC E. faecium [7, 12] [µg/mL] | MIC P. aeruginosa [8, 12] [µg/mL] | MIC K. aerogenes [9, 12] [µg/mL] | other results |
| --- | --- | --- | --- | --- | --- | --- | --- | --- | --- | --- | --- | --- | --- | --- | --- | --- | --- | --- | --- | --- | --- |
| CC[C@H](C)[C@H](NC(=O)[C@H](CCCNC(=N)N)NC(=O)[C@H](CCC(N)=O)NC(=O)[C@@H](NC(=O)[C@@H](NC(=O)[C@H](CCCNC(=N)N)NC(=O)[C@H](CCCCN)NC(=O)/C=C/c1ccccc1)[C@@H](C)CC)C(C)C)C(=O)N[C@@H](CCCCN)C(=O)N[C@@H](CC(=O)O)C(=O)N[C@@H](Cc1ccccc1)C(=O)N[C@@H](CC(C)C)C(=O)N[C@@H](CCCNC(=N)N)C(N)=O [XIX, trans-cinnamic acid-KR12-NH2] (X4-KRIVQRIKDFLR-NH2) | 8 (≈ 4.7 µM) | 16 (≈ 9.41 µM) | 16 (≈ 9.41 µM) | 16 (≈ 9.41 µM) | 4 (≈ 2.35 µM) | 8 (≈ 4.7 µM) | 4 (≈ 2.35 µM) | 32 (≈ 18.8 µM) | 16 (≈ 9.41 µM) | 16 (≈ 9.41 µM) | – | – | – | – | – | – | – | – | – | – | MHC5 (minimum hemolytic concentration causing 5% hemolysis of hRBCs) ([1]; fresh batch of blood (footnote a)): 128 ^a µg/mL |
| CC[C@H](C)[C@H](NC(=O)[C@H](CCCNC(=N)N)NC(=O)[C@H](CCC(N)=O)NC(=O)[C@@H](NC(=O)[C@@H](NC(=O)[C@H](CCCNC(=N)N)NC(=O)[C@H](CCCCN)NC(=O)c1ccccc1)[C@@H](C)CC)C(C)C)C(=O)N[C@@H](CCCCN)C(=O)N[C@@H](CC(=O)O)C(=O)N[C@@H](Cc1ccccc1)C(=O)N[C@@H](CC(C)C)C(=O)N[C@@H](CCCNC(=N)N)C(N)=O [XV, Benzoic acid-KR12-NH2] (Bz-KRIVQRIKDFLR-NH2) | – | – | – | – | – | – | – | – | – | – | ≥512 | 32 (≈ 19.1 µM) | 64 (≈ 38.2 µM) | 8 (≈ 4.78 µM) | 32 (≈ 19.1 µM) | 32 (≈ 19.1 µM) | 64 (≈ 38.2 µM) | 8 (≈ 4.78 µM) | 128 (≈ 76.4 µM) | 64 (≈ 38.2 µM) | MIC K. pneumoniae [10, 12]: 64 µg/mL (≈ 38.2 µM) |
| CC[C@H](C)[C@H](NC(=O)[C@H](CCCNC(=N)N)NC(=O)[C@H](CCC(N)=O)NC(=O)[C@@H](NC(=O)[C@@H](NC(=O)[C@H](CCCNC(=N)N)NC(=O)[C@H](CCCCN)NC(=O)Cc1ccccc1)[C@@H](C)CC)C(C)C)C(=O)N[C@@H](CCCCN)C(=O)N[C@@H](CC(=O)O)C(=O)N[C@@H](Cc1ccccc1)C(=O)N[C@@H](CC(C)C)C(=O)N[C@@H](CCCNC(=N)N)C(N)=O [XVI, Phenylacetic acid-KR12-NH2] (PhAc-KRIVQRIKDFLR-NH2) | – | – | – | – | – | – | – | – | – | – | 256 | 32 (≈ 18.9 µM) | 128 (≈ 75.8 µM) | 16 (≈ 9.47 µM) | 32 (≈ 18.9 µM) | 32 (≈ 18.9 µM) | 64 (≈ 37.9 µM) | 8 (≈ 4.74 µM) | 128 (≈ 75.8 µM) | 64 (≈ 37.9 µM) | MIC K. pneumoniae [10, 12]: 64 µg/mL (≈ 37.9 µM) |
| CC[C@H](C)[C@H](NC(=O)[C@H](CCCNC(=N)N)NC(=O)[C@H](CCC(N)=O)NC(=O)[C@@H](NC(=O)[C@@H](NC(=O)[C@H](CCCNC(=N)N)NC(=O)[C@H](CCCCN)NC(=O)CCc1ccccc1)[C@@H](C)CC)C(C)C)C(=O)N[C@@H](CCCCN)C(=O)N[C@@H](CC(=O)O)C(=O)N[C@@H](Cc1ccccc1)C(=O)N[C@@H](CC(C)C)C(=O)N[C@@H](CCCNC(=N)N)C(N)=O [XVII, 3-Phenylpropionic acid-KR12-NH2] (Hydrocinnamoyl-KRIVQRIKDFLR-NH2) | 32 (≈ 18.8 µM) | 16 (≈ 9.39 µM) | 8 (≈ 4.7 µM) | 16 (≈ 9.39 µM) | 16 (≈ 9.39 µM) | 32 (≈ 18.8 µM) | 4 (≈ 2.35 µM) | 64 (≈ 37.6 µM) | 64 (≈ 37.6 µM) | 32 (≈ 18.8 µM) | 256 | – | – | – | – | – | – | – | – | – | – |
